≈ marks a conversion by molar mass, not a printed value.
Tests used:
Format in all cases: functional
[1] = system: Staphylococcus aureus; experiment: Antibacterial activity against Staphylococcus aureus RN4220 by CLSI method
[2] = system: Staphylococcus aureus; experiment: Antibacterial activity against Staphylococcus aureus RN4220 harboring aadD, tet(L), dfrK and vga(C) gene by CLSI method
[3] = system: Staphylococcus aureus; experiment: Antibacterial activity against Staphylococcus aureus RN4220 harboring aadD and tet(L) gene by CLSI method
[4] = system: Staphylococcus aureus; experiment: Antibacterial activity against Staphylococcus aureus RN4220 harboring tet(L), dfrK gene by CLSI method

In the case of CCC[C@@H]1C[C@@H](C(=O)N[C@@H]([C@H]2O[C@H](SC)[C@H](O)[C@@H](O)[C@H]2O)[C@H](C)Cl)N(C)C1 [CLINDAMYCIN], the MIC [1] is reported as ≤ 0.12 µg/mL and the MIC [2] is reported as 2 µg/mL (≈ 4.71 µM).

CC[C@H]1OC(=O)[C@H](C)[C@@H](O[C@H]2C[C@@](C)(OC)[C@@H](O)[C@H](C)O2)[C@H](C)[C@@H](O[C@@H]2O[C@H](C)C[C@H](N(C)C)[C@H]2O)[C@](C)(O)C[C@@H](C)C(=O)[C@H](C)[C@@H](O)[C@]1(C)O [ERYTHROMYCIN] gave an MIC [1] of 0.25 µg/mL (≈ 0.341 µM), an MIC [3] of 0.25 µg/mL (≈ 0.341 µM) and an MIC [2] of 0.25 µg/mL (≈ 0.341 µM). It also gave an MIC [4] of 0.25 µg/mL (≈ 0.341 µM).

For NC[C@@H]1O[C@H](O[C@H]2[C@@H](O)[C@H](O[C@@H]3[C@@H](O)[C@H](N)C[C@H](N)[C@H]3O[C@H]3O[C@H](CN)[C@@H](O)[C@H](O)[C@H]3N)O[C@@H]2CO)[C@H](N)[C@@H](O)[C@@H]1O [FRAMYCETIN], the MIC [1] was ≤ 1 µg/mL, the MIC [3] was 64 µg/mL (≈ 104 µM) and the MIC [2] was 64 µg/mL (≈ 104 µM).

Molecule NC[C@H]1O[C@H](O[C@H]2[C@H](O)[C@@H](O[C@H]3O[C@H](CO)[C@@H](O)[C@H](N)[C@H]3O)[C@H](N)C[C@@H]2N)[C@H](O)[C@@H](O)[C@@H]1O [KANAMYCIN] has an MIC [1] of 4 µg/mL (≈ 8.26 µM), an MIC [3] of 32 µg/mL (≈ 66 µM) and an MIC [2] of 32 µg/mL (≈ 66 µM). For the same molecule, the MIC [4] was 4 µg/mL (≈ 8.26 µM).

Work on CCC[C@@H]1C[C@@H](C(=O)N[C@@H]([C@H]2O[C@H](SC)[C@H](O)[C@@H](O)[C@H]2O)[C@@H](C)O)N(C)C1 [LINCOMYCIN] yielded an MIC [1] of 1 µg/mL (≈ 2.46 µM), an MIC [3] of 1 µg/mL (≈ 2.46 µM) and an MIC [2] of 64 µg/mL (≈ 157 µM). The MIC [4] was 1 µg/mL (≈ 2.46 µM).

CC[C@@H]1CCN[C@H](C(=O)N[C@@H]([C@H]2O[C@H](SC)[C@H](O)[C@@H](O)[C@H]2O)[C@H](C)Cl)C1 [PIRLIMYCIN] gave an MIC [1] of 0.25 µg/mL (≈ 0.608 µM), an MIC [3] of 0.25 µg/mL (≈ 0.608 µM) and an MIC [2] of 4 µg/mL (≈ 9.73 µM). For the same molecule, the MIC [4] was 0.25 µg/mL (≈ 0.608 µM).

Molecule CN(C)[C@@H]1C(O)=C(C(N)=O)C(=O)[C@@]2(O)C(O)=C3C(=O)c4c(O)cccc4[C@@](C)(O)[C@H]3C[C@@H]12 [TETRACYCLINE] has an MIC [1] of 0.06 µg/mL (≈ 0.135 µM), an MIC [3] of 64 µg/mL (≈ 144 µM) and an MIC [2] of 64 µg/mL (≈ 144 µM). It also gave an MIC [4] of 64 µg/mL (≈ 144 µM).

C=C[C@]1(C)C[C@@H](OC(=O)CSCCN(CC)CC)[C@]2(C)[C@H](C)CC[C@]3(CCC(=O)[C@H]32)[C@@H](C)[C@@H]1O [TIAMULIN] was tested, and the MIC [1] was 0.06 µg/mL (≈ 0.122 µM), the MIC [3] was 0.06 µg/mL (≈ 0.122 µM) and the MIC [2] was ≥ 128 µg/mL. For the same molecule, the MIC [4] was 0.06 µg/mL (≈ 0.122 µM).

With COc1cc(Cc2cnc(N)nc2N)cc(OC)c1OC [TRIMETHOPRIM] the MIC [1] was 0.5 µg/mL (≈ 1.72 µM), the MIC [3] was 0.5 µg/mL (≈ 1.72 µM) and the MIC [2] was ≥ 512 µg/mL. For the same molecule, the MIC [4] was ≥ 512 µg/mL.

In the case of C=C[C@]1(C)C[C@@H](OC(=O)CSC(C)(C)CNC(=O)[C@H](N)C(C)C)[C@]2(C)[C@H](C)CC[C@]3(CCC(=O)[C@H]32)[C@@H](C)[C@@H]1O [VALNEMULIN], the MIC [1] is reported as 0.03 µg/mL (≈ 0.0531 µM), the MIC [3] is reported as 0.03 µg/mL (≈ 0.0531 µM) and the MIC [2] is reported as ≥ 128 µg/mL. The MIC [4] was 0.03 µg/mL (≈ 0.0531 µM).

CC1=C\[C@@H](O)CC(=O)Cc2nc(co2)C(=O)N2CCC=C2C(=O)O[C@H](C(C)C)[C@H](C)/C=C/C(=O)NC\C=C\1 [VIRGINIAMYCIN FACTOR M1] gave an MIC [1] of 4 µg/mL (≈ 7.61 µM), an MIC [3] of 4 µg/mL (≈ 7.61 µM) and an MIC [2] of 32 µg/mL (≈ 60.9 µM). It also gave an MIC [4] of 4 µg/mL (≈ 7.61 µM).
